From ChEMBL document CHEMBL1201862, “PubChem BioAssay data set” (2004)
Active and inactive are the calls of the source.

Columns and labels:
Cytochrome P450 2C9 = Cytochrome P450 2C9 (Homo sapiens, UniProt P11712)
Cytochrome P450 2C19 = Cytochrome P450 2C19 (Homo sapiens, UniProt P33261); assay: Cytochrome panel assay with activity outcomes. Panel member name: p450-cyp2c19 Compounds with AC50 equal or less than 10 uM are considered active; assay type: functional
Large T antigen = Large T antigen (Simian virus 40, UniProt P03070); assay type: functional, Betapolyomavirus macacae;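 note: Confirmatory-stage PubChem screen for compounds that inhibit SV40 T antigen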
[1] = target: Voltage-dependent T-type calcium channel subunit alpha-1H (Homo sapiens, UniProt O95180); assay type: functional;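 note: channel activity triggered by adding a high calcium stimulation buffer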
Aminopeptidase N = target: T1, Aminopeptidase N (Plasmodium falciparum FcB1/Columbia, UniProt O96935); assay: P. falciparum M1AAP inhibitors, biochemical, fluorogenic H-Leu-NHMec substrate, 1536-well (AID 1445); design: species or system Plasmodium falciparum 3D7, 3D7
T1 sequence (O96935 whole entry): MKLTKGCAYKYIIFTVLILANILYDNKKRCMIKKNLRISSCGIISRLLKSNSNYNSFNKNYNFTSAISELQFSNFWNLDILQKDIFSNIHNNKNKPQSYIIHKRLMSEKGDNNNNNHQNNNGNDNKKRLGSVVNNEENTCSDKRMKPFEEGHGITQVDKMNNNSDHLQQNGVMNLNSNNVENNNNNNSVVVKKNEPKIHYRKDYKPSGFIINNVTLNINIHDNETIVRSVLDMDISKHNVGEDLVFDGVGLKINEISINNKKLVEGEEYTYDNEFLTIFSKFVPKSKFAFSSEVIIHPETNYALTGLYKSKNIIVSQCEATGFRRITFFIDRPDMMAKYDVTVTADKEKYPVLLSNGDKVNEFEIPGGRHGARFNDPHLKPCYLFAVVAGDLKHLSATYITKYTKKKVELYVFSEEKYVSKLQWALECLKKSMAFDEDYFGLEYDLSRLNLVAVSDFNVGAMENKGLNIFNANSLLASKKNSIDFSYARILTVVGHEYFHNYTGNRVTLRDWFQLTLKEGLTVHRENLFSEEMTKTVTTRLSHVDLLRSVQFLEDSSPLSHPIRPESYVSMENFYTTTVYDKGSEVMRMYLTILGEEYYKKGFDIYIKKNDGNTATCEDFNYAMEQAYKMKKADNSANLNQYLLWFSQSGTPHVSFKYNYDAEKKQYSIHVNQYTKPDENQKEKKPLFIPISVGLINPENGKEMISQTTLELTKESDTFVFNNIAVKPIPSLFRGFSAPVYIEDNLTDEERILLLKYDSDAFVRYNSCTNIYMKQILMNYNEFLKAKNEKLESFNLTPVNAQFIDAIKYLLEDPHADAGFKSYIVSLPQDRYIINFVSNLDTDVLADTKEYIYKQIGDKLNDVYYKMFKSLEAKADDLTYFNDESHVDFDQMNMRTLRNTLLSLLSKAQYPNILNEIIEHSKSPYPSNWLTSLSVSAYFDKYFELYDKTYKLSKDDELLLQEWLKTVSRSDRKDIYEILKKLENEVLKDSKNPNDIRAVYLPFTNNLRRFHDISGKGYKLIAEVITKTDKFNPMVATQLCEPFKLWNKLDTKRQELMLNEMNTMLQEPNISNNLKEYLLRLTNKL

Streptokinase A = target: T2, Streptokinase A (Streptococcus pyogenes serotype M1, UniProt P10520); assay: S. pyogenes streptokinase expression inhibitors, potency, dose response, plasminogen activation absorbance, OD405 (AID 1914); assay type: functional, Streptococcus pyogenes M1 GAS;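 note: secreted streptokinase activity via plasminogen activation per viability signal from cell pellet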
T2 sequence (P10520 whole entry): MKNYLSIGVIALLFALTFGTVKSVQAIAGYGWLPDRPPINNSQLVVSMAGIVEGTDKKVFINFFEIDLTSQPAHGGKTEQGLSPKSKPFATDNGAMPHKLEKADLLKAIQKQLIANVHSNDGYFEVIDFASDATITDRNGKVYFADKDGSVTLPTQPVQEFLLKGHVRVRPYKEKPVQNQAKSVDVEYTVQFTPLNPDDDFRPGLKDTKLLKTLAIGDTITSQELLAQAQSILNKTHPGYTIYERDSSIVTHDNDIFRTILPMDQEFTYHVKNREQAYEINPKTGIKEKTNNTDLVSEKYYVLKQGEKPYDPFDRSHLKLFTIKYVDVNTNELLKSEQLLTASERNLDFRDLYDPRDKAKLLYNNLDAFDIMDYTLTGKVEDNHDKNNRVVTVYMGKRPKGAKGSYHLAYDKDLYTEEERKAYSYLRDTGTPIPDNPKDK

[2] = HepG2 cell cytotoxicity, dose response, cytotoxicity control for non-replicating M. tuberculosis project (AID 489018); assay type: functional; settings: Mycobacterium tuberculosis
[3] = Vero E6 cell cytotoxicity, dose response, cytotoxicity control for non-replicating M. tuberculosis project, secondary assay (AID 492998); assay type: functional, VeroE6; settings: Vero C1008
[4] = test system: Streptococcus sp. 'group A'; assay: growth inhibition of control SK(-) GAS strain, dose response, counter-screen for streptokinase expression inhibitor project, luminescence, kanamycin, BacTiterGlo, confirmation (AID 1900); assay type: functional, organism-based
cells = assay type: functional
[5] = microbe, parasite or virus in culture; assay type: functional; settings: Mycobacterium tuberculosis
Streptococcus = assay: Group A Streptococcus viability loss, dose response, counter-screen for streptokinase expression inhibitor project, luminescence, BacTiterGlo (AID 1915); assay type: functional, organism-based;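 note: potency for reduction of bacterial viability or growth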
[6] = THP-1 cell cytotoxicity, dose response, cytotoxicity control for non-replicating M. tuberculosis project (AID 489025); assay type: functional
[7] = cytotoxicity toward NIH3T3 fibroblasts, dose response, counter-screen, cell-based, ATP luminescence, mouse fibroblasts (AID 2010); assay type: functional;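 note: cells exposed to compound for about 90 hours before reading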
[8] = inhibitors of intracellular T. cruzi replication, confirmation, NIH3T3 host cells, beta-gal luminescence (AID 2044); assay type: functional, cell-based;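 note: intracellular parasites grown in NIH/3T3 mouse fibroblasts as host cells; luminescent beta-galactosidase reporter signal from transgenic T. cruzi replicating inside host cells; inhibitors lower the luminescence signal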
Cytochrome P450 1A2 = target: T3, Cytochrome P450 1A2 (Homo sapiens, UniProt P05177);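 note: PubChem cytochrome P450 panel assay, CYP1A2 panel member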
T3 sequence (P05177 whole entry): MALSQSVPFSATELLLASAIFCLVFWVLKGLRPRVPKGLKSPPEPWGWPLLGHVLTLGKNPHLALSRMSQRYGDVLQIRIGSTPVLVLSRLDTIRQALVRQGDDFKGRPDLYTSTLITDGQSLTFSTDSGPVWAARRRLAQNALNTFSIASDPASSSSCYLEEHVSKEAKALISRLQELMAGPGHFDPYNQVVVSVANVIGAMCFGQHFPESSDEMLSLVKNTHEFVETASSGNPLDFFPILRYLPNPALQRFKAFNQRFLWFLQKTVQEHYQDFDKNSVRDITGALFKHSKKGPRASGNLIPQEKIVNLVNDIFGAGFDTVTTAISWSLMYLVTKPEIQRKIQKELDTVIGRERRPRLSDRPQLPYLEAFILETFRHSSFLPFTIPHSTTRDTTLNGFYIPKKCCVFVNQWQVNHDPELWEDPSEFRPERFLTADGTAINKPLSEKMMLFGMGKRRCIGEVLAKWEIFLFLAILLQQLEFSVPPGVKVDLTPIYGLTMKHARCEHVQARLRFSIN

Sequence of Voltage-dependent T-type calcium channel subunit alpha-1H (O95180 whole entry): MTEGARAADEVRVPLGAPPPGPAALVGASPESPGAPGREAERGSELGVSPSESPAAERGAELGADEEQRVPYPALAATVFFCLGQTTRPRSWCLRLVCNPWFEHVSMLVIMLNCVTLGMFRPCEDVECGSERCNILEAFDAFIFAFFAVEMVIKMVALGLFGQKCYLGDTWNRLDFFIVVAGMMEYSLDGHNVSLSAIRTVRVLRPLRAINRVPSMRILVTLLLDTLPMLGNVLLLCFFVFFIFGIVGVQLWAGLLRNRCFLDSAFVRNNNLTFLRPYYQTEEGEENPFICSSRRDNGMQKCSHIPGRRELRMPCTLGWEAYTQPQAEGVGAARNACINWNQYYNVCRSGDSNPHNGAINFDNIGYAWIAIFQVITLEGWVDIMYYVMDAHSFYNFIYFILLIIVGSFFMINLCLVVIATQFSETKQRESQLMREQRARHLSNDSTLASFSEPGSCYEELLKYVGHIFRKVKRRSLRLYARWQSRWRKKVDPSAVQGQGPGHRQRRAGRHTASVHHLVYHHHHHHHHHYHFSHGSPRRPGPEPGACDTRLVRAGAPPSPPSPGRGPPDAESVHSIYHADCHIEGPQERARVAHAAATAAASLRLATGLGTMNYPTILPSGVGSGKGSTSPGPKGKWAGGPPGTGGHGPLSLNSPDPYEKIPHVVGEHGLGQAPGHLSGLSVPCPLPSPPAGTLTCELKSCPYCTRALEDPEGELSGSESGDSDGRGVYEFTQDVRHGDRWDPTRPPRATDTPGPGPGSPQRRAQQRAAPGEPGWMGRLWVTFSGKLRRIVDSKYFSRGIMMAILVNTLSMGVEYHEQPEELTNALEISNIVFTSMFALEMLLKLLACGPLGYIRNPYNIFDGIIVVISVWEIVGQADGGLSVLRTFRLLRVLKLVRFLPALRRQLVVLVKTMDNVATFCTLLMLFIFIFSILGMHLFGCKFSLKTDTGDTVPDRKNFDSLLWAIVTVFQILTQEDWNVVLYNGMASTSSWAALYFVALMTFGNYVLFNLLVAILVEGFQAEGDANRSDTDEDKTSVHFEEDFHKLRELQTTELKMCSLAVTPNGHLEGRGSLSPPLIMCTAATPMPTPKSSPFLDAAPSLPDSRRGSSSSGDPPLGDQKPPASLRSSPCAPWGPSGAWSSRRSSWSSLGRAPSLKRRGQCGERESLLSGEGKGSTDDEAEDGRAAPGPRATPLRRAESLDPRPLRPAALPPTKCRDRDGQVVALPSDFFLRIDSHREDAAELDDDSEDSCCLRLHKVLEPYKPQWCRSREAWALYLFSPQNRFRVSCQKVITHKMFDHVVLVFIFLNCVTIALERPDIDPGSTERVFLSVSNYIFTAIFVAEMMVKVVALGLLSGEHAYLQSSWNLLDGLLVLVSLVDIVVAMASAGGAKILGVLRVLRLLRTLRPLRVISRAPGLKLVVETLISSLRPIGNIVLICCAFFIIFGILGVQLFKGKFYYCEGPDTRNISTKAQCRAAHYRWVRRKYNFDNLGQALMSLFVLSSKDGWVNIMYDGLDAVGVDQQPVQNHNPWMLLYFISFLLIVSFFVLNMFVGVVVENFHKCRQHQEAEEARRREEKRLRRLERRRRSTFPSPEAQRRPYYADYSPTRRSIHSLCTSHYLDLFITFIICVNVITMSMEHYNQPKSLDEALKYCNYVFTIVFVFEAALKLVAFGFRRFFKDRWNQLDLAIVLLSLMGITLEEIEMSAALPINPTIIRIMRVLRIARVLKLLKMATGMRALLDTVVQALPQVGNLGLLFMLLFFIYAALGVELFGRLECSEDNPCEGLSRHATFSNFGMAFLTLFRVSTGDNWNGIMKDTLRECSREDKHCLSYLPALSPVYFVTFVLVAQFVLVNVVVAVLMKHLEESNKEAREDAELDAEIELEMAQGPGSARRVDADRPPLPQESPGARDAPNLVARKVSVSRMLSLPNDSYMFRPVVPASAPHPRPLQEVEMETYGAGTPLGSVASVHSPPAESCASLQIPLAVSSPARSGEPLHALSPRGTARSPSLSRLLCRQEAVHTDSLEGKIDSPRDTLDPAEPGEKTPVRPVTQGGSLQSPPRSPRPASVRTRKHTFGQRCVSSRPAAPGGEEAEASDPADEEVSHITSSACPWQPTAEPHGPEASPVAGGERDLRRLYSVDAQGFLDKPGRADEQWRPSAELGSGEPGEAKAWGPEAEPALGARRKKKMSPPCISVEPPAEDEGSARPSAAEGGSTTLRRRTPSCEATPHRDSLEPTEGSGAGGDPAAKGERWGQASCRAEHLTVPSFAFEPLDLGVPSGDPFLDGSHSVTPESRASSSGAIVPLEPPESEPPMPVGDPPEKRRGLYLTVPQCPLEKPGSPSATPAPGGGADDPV
Sequence of Cytochrome P450 2C9 (P11712 whole entry): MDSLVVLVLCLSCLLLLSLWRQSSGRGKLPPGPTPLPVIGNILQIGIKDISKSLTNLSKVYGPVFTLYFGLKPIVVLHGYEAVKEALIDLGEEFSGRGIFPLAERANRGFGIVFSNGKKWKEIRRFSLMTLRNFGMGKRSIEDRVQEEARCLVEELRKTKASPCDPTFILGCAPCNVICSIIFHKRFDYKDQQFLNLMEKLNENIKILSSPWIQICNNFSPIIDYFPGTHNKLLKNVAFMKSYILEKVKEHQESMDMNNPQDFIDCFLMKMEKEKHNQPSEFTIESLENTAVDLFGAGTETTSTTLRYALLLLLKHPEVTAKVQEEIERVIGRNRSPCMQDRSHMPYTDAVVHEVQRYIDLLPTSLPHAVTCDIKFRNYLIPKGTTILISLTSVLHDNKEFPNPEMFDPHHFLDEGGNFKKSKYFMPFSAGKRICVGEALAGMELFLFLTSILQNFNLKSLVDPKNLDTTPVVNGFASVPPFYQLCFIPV
Sequence of Cytochrome P450 2C19 (P33261 whole entry): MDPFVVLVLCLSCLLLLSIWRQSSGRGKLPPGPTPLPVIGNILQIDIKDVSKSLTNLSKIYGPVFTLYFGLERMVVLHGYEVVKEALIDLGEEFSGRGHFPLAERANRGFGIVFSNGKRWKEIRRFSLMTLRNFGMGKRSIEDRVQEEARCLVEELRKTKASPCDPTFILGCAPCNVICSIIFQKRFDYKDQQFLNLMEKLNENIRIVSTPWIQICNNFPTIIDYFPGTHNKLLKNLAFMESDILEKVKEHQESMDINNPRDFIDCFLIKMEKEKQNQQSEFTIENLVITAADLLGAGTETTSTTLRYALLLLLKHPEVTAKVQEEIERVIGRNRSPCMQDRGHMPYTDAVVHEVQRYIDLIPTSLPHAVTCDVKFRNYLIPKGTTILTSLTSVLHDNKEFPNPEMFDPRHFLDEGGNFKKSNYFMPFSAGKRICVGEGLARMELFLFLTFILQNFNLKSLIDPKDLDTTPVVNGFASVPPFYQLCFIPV
Sequence of Large T antigen (P03070 whole entry): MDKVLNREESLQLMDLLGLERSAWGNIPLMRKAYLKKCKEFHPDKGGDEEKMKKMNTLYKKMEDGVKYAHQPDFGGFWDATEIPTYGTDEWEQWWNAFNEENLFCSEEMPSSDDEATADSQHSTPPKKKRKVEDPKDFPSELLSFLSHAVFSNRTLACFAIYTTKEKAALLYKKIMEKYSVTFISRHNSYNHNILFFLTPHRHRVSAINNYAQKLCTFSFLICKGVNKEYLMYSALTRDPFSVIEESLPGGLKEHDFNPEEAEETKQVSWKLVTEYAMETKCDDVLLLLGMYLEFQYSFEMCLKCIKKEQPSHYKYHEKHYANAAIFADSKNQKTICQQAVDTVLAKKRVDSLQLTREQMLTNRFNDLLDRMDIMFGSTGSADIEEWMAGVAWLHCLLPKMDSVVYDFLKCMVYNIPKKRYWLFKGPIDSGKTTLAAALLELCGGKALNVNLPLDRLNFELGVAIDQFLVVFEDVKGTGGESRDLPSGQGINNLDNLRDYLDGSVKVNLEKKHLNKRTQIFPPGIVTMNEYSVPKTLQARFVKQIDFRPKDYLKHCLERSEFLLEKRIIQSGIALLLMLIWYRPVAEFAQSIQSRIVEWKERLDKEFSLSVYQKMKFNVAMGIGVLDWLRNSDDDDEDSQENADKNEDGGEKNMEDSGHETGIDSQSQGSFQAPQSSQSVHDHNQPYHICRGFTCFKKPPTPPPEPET

C[C@@H](NC(=O)/C(C#N)=C/c1ccc(O)c(O)c1)c1ccccc1
AC50 (Cytochrome P450 2C9): inconclusive | AC50 (Cytochrome P450 2C19; read-out: AC50): 39.8 µM (inconclusive) | IC50 (Large T antigen): 7.28 µM (active)

CC(Sc1nnnn1-c1ccccc1)C(=O)Nc1ccc(Cl)cn1 (centres undefined)
EC50 [1]: 6.14 µM (active)

CCC(=O)Nc1cc2c(cc1C(=O)c1ccccc1)OCCO2
AC50 (Cytochrome P450 2C9): inconclusive

Cc1ccc(-c2n[nH]c3c2C(c2cccc(O)c2)N(c2ccc(C(=O)O)cc2)C3=O)cc1 (centres undefined)
IC50 (Aminopeptidase N): 36.6 µM (active)

Cc1cc(NC(=O)c2sccc2C)n(-c2nc3ccccc3[nH]2)n1
EC50 (Streptokinase A): > 150 µM (not active) | CC50 [2]: > 20 µM (active) | CC50 [3]: 12.8 µM (active) | EC50 [4]: 3.9 µM (active) | IC50 (cells): 4.09 µM (active) | CC50 [5]: 28.5 µM (active) | EC50 (Streptococcus): 5.49 µM (active) | CC50 [6]: > 40 µM (active)

CCCCCCCC(=O)N/N=C(\C)c1ccc(O)cc1O
CC50 [2]: 20 µM (active) | CC50 [3]: 12.6 µM (active) | CC50 [6]: 20 µM (active)

Cc1c(Cl)cccc1NC(=O)c1nc(C)n(-c2cc(OC(C)C)c(Cl)cc2Cl)n1
EC50 [7]: > 60 µM (not active) | EC50 [1]: 7.19 µM (active) | EC50 [8]: 2.77 µM (active)

O=S(=O)(c1ccc(Oc2ccc(Cl)cc2)c(S(=O)(=O)N2CCCCC2)c1)N1CCCCC1
EC50 [1]: 2.28 µM (active)

Nc1nc(S)nc(O)c1/N=N\c1c(Br)cc(S(N)(=O)=O)cc1Br
AC50 (Cytochrome P450 2C9): inconclusive | AC50 (Cytochrome P450 2C19): inconclusive | AC50 (Cytochrome P450 1A2): 3.16 µM (inconclusive)
